The results in this text go back to patent US20260166128A1, “HUMAN AMYLIN ANALOG, AND DERIVATIVE THEREOF AND USE THEREOF” (priority 2022, published 2026).

Usually EC50 stands for the concentration giving half of the maximal effect.

Numbered stars: 1 amine (or outer) side, 2 acyl side, 3 side chain; on linkers, the order of the positions; unused ones are H or OH. Bridge positions count the residues as written; N and C are the ends. Square brackets hold non-standard residues; d marks the D form. Side chains are listed from the residue outwards. Peptide text beside a SMILES is read from it. * marks the point of attachment. C20 diacid = O=C(O)CCCCCCCCCCCCCCCCCCC(=O)*; C18 diacid = O=C(O)CCCCCCCCCCCCCCCCC(=O)*; γGlu = O=C(O)[C@H](CCC(=O)[*:2])N[*:1]; Hyp = O=C(O)[C@@H]1C[C@@H](O)CN1; AEEA = NCCOCCOCC(=O)O

The nature of data set [1]: Freeze-thaw stability of derivatives (freeze-thaw yield by liquid chromatography). The class given is physicochemical. The following applies: for Dissolution property: appearance after dissolution at 0.2 mg/ml in 20 mM phosphate buffer solution (PB) (pH 7.0); for Freeze storage property: appearance after overnight storage at −20° C. and thawing to room temperature, 0.2 mg/ml in 20 mM PB (pH 7.0); for Freeze storage yield: concentration of polypeptide after freezing and thawing / concentration before, by liquid chromatography, −20° C. overnight. On the procedure: The freeze-dried powder of the polypeptide analog derivative prepared in Example 1 was mixed with a buffer solution according to a mass-volume ratio of 0.2 mg/ml, the polypeptide was dissolved with 20 mM phosphate buffer solution (PB) (pH 7.0), the sample was stored at −20° C. for overnight storage, and then the sample was taken out to be restored to room temperature for thawing. During the experiment, property changes of the polypeptide after dissolution and freezing and thawing were observed and recorded respectively, and concentrations of the polypeptide before and after the freezing and thawing were detected by the following liquid chromatography method: Materials and equipment: high-performance liquid chromatographic instrument (Agilent 1200), ultrapure water (18.2 MΩ self-manufactured ultrapure water), acetonitrile (HPLC grade), and trifluoroacetic acid (HPLC grade); and reversed-phase chromatographic column: […] A sample to be tested was centrifuged at 10,000 rpm and 4° C. for 3 minutes, and a supernatant was taken and added into a liquid-phase sample injection bottle. […] A freeze-thaw yield was calculated by the following formula: freeze-thaw yield=concentration of polypeptide after the freezing and thawing/concentration of polypeptide before the freezing and thawing.

A further data set has as its target T1, human amylin receptor (Homo sapiens, UniProt O60896+P30988).
T1 construct: host or cells: CHO-K1/Ga15/AMY3 cells, further stably transfected with a CRE-luciferase plasmid
T1 sequence (P30988 25-474): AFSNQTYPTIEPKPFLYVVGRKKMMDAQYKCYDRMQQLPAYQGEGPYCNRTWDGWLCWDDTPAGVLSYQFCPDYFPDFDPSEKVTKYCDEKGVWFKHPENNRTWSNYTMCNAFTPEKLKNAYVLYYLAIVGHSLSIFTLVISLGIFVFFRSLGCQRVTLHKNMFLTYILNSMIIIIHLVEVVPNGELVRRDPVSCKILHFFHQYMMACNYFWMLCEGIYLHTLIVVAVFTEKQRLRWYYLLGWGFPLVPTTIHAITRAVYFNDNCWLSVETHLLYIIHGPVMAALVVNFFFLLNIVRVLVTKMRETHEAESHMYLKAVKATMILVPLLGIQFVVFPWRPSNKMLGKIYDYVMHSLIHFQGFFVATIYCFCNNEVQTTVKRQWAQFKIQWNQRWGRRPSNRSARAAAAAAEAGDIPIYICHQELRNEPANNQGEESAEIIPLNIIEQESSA
T1 sequence (O60896 24-148 partner): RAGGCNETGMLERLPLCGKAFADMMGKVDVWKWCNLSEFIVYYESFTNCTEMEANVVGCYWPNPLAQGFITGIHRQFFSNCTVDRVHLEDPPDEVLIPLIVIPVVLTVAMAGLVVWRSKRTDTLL
Nature of the data set: Luciferase assay of amylin derivatives in amylin receptor/CRE-luc CHO cell line. In kind it is cell-based. The settings on record: CHO-K1/Ga15/AMY3 CRE-luc cells, 24 hours incubation, F12 medium containing 10% FBS; read-out: EC50.

Description for human amylin receptor: The experiment was intended to detect the activity or efficacy of the amylin derivatives on a human amylin receptor in vitro by luciferase assay.
50 μL of growth medium (F12 medium containing 10% FBS) was added into each well of a white 96-well plate, and the stably transfected amylin/CRE-lue CHO cells were inoculated into the white 96-well plate at a density of about 20,000 cells/well for activity determination.

With `CC[C@H](C)[C@H](NC(=O)[C@H](CCCCNC(=O)COCCOCCNC(=O)CC[C@H](NC(=O)CCCCCCCCCCCCCCCCCCC(=O)O)C(=O)O)NC(=O)CNC(=O)[C@H](CC(C)C)NC(=O)[C@H](CC(N)=O)NC(=O)[C@H](CC(N)=O)NC(=O)[C@H](CO)NC(=O)[C@H](CO)NC(=O)[C@H](Cc1c[nH]cn1)NC(=O)[C@H](CCCNC(=N)N)NC(=O)[C@H](CC(C)C)NC(=O)[C@H](Cc1ccccc1)NC(=O)[C@H](CC(=O)O)NC(=O)[C@H](C)NC(=O)[C@H](CC(C)C)NC(=O)[C@H](CCCNC(=N)N)NC(=O)[C@H](CCC(N)=O)NC(=O)[C@@H](NC(=O)[C@H](C)NC(=O)[C@@H]1CSSC[C@H](NC(=O)[C@@H](N)CCCNC(=N)N)C(=O)N[C@@H](CC(N)=O)C(=O)N[C@@H]([C@@H](C)O)C(=O)N[C@@H](C)C(=O)N[C@@H]([C@@H](C)O)C(=O)N1)[C@@H](C)O)C(=O)N[C@@H](CC(C)C)C(=O)N1CCC[C@H]1C(=O)N1CCC[C@H]1C(=O)N[C@H](C(=O)N[C@@H](CC(N)=O)C(=O)N[C@H](C(=O)NCC(=O)N[C@@H](CO)C(=O)N[C@@H](CC(N)=O)C(=O)N[C@H](C(=O)N1C[C@H](O)C[C@H]1C(N)=O)[C@@H](C)O)C(C)C)[C@@H](C)O` [PD120] (H-RCNTATCATQRLADFLRHSSNNLGK([AEEA-γGlu-C20 diacid])ILPPTNVGSNT[Hyp]-NH2; disulfide 2-7 (inferred); N-terminus assumed), in data set [1], the Dissolution property entry was “Clear”, the Freeze storage property result is given as “Clear” and the Freeze storage yield was found to be 103.41%. Also, the concentration for a half-maximal effect (EC50) at human amylin receptor came to 23 pM.
Turning to `CC[C@H](C)[C@H](NC(=O)[C@@H]1CCCN1C(=O)CNC(=O)[C@H](CC(C)C)NC(=O)[C@H](CCCCNC(=O)CC[C@H](NC(=O)CCCCCCCCCCCCCCCCC(=O)O)C(=O)O)NC(=O)[C@H](CC(N)=O)NC(=O)[C@H](CO)NC(=O)[C@H](CO)NC(=O)[C@H](Cc1c[nH]cn1)NC(=O)[C@H](CCCNC(=N)N)NC(=O)[C@H](CC(C)C)NC(=O)[C@H](Cc1ccccc1)NC(=O)[C@H](CC(=O)O)NC(=O)[C@H](C)NC(=O)[C@H](CC(C)C)NC(=O)[C@H](CCCNC(=N)N)NC(=O)[C@H](CCC(N)=O)NC(=O)[C@@H](NC(=O)[C@H](C)NC(=O)[C@@H]1CSSC[C@H](NC(=O)[C@@H](N)CCCNC(=N)N)C(=O)N[C@@H](CC(N)=O)C(=O)N[C@@H]([C@@H](C)O)C(=O)N[C@@H](C)C(=O)N[C@@H]([C@@H](C)O)C(=O)N1)[C@@H](C)O)C(=O)N[C@@H](CC(C)C)C(=O)N1CCC[C@H]1C(=O)N1CCC[C@H]1C(=O)N[C@H](C(=O)N[C@@H](CC(N)=O)C(=O)N[C@H](C(=O)NCC(=O)N[C@@H](CO)C(=O)N[C@@H](CC(N)=O)C(=O)N[C@H](C(=O)N1C[C@H](O)C[C@H]1C(N)=O)[C@@H](C)O)C(C)C)[C@@H](C)O` [PD088] (H-RCNTATCATQRLADFLRHSSNK([γGlu-C18 diacid])LGPILPPTNVGSNT[Hyp]-NH2; disulfide 2-7 (inferred); N-terminus assumed), in data set [1], the Dissolution property entry is given as “Clear”, the Freeze storage property result is listed as “Clear” and the Freeze storage yield worked out at 120.04%. For the same molecule, at human amylin receptor, the EC50 came out at 13 pM.
In the case of `CC[C@H](C)[C@H](NC(=O)[C@@H]1CCCN1C(=O)CNC(=O)[C@H](CC(C)C)NC(=O)[C@H](CCCCNC(=O)CC[C@H](NC(=O)CCCCCCCCCCCCCCCCCCC(=O)O)C(=O)O)NC(=O)[C@H](CC(N)=O)NC(=O)[C@H](CO)NC(=O)[C@H](CO)NC(=O)[C@H](Cc1c[nH]cn1)NC(=O)[C@H](CCCNC(=N)N)NC(=O)[C@H](CC(C)C)NC(=O)[C@H](Cc1ccccc1)NC(=O)[C@H](CCC(=O)O)NC(=O)[C@H](C)NC(=O)[C@H](CC(C)C)NC(=O)[C@H](CCCNC(=N)N)NC(=O)[C@H](CCC(N)=O)NC(=O)[C@@H](NC(=O)[C@H](C)NC(=O)[C@@H]1CSSC[C@H](NC(=O)[C@@H](N)CCCNC(=N)N)C(=O)N[C@@H](CC(N)=O)C(=O)N[C@@H]([C@@H](C)O)C(=O)N[C@@H](C)C(=O)N[C@@H]([C@@H](C)O)C(=O)N1)[C@@H](C)O)C(=O)N[C@@H](CC(C)C)C(=O)N1CCC[C@H]1C(=O)N1CCC[C@H]1C(=O)N[C@H](C(=O)N[C@@H](CC(N)=O)C(=O)N[C@H](C(=O)NCC(=O)N[C@@H](CO)C(=O)N[C@@H](CC(N)=O)C(=O)N[C@H](C(=O)N1CCC[C@H]1C(N)=O)[C@@H](C)O)C(C)C)[C@@H](C)O` [PD007] (H-RCNTATCATQRLAEFLRHSSNK([γGlu-C20 diacid])LGPILPPTNVGSNTP-NH2; disulfide 2-7 (inferred); N-terminus assumed), in data set [1], the Dissolution property entry is “Clear” and the Freeze storage property entry is “Clear”. In addition, on human amylin receptor, the concentration for a half-maximal effect (EC50) is 205 pM.
For `CC[C@H](C)[C@H](NC(=O)[C@@H]1CCCN1C(=O)CNC(=O)[C@H](CC(C)C)NC(=O)[C@H](CC(N)=O)NC(=O)[C@H](CC(N)=O)NC(=O)[C@H](CO)NC(=O)[C@H](CCCCNC(=O)CC[C@H](NC(=O)CCCCCCCCCCCCCCCCC(=O)O)C(=O)O)NC(=O)[C@H](Cc1c[nH]cn1)NC(=O)[C@H](CCCNC(=N)N)NC(=O)[C@H](CC(C)C)NC(=O)[C@H](Cc1ccccc1)NC(=O)[C@H](CC(=O)O)NC(=O)[C@H](C)NC(=O)[C@H](CC(C)C)NC(=O)[C@H](CCCNC(=N)N)NC(=O)[C@H](CCC(N)=O)NC(=O)[C@@H](NC(=O)[C@H](C)NC(=O)[C@@H]1CSSC[C@H](NC(=O)[C@@H](N)CCCNC(=N)N)C(=O)N[C@@H](CC(N)=O)C(=O)N[C@@H]([C@@H](C)O)C(=O)N[C@@H](C)C(=O)N[C@@H]([C@@H](C)O)C(=O)N1)[C@@H](C)O)C(=O)N[C@@H](CC(C)C)C(=O)N1CCC[C@H]1C(=O)N1CCC[C@H]1C(=O)N[C@H](C(=O)N[C@@H](CC(N)=O)C(=O)N[C@H](C(=O)NCC(=O)N[C@@H](CO)C(=O)N[C@@H](CC(N)=O)C(=O)N[C@H](C(=O)N1C[C@H](O)C[C@H]1C(N)=O)[C@@H](C)O)C(C)C)[C@@H](C)O` [PD100] (H-RCNTATCATQRLADFLRHK([γGlu-C18 diacid])SNNLGPILPPTNVGSNT[Hyp]-NH2; disulfide 2-7), the 50% effective concentration (EC50) on human amylin receptor was 60 pM.
Regarding `CC[C@H](C)[C@H](NC(=O)[C@@H]1CCCN1C(=O)[C@H](CCCCN)NC(=O)[C@H](CC(C)C)NC(=O)[C@H](CC(N)=O)NC(=O)[C@H](CC(N)=O)NC(=O)[C@H](CO)NC(=O)[C@H](CO)NC(=O)[C@H](Cc1c[nH]cn1)NC(=O)[C@H](CCCNC(=N)N)NC(=O)[C@H](CC(C)C)NC(=O)[C@H](Cc1ccccc1)NC(=O)[C@H](CC(=O)O)NC(=O)[C@H](C)NC(=O)[C@H](CC(C)C)NC(=O)[C@H](CCCNC(=N)N)NC(=O)[C@H](CCC(N)=O)NC(=O)[C@@H](NC(=O)[C@H](C)NC(=O)[C@@H]1CSSC[C@H](NC(=O)[C@H](CCCCN)NC(=O)COCCOCCNC(=O)COCCOCCNC(=O)[C@H](CC(=O)O)NC(=O)CCCCCCCCCCCCCCCCCCC(=O)O)C(=O)N[C@@H](CC(N)=O)C(=O)N[C@@H]([C@@H](C)O)C(=O)N[C@@H](C)C(=O)N[C@@H]([C@@H](C)O)C(=O)N1)[C@@H](C)O)C(=O)N[C@@H](CC(C)C)C(=O)N1CCC[C@H]1C(=O)N1CCC[C@H]1C(=O)N[C@H](C(=O)N[C@@H](CC(N)=O)C(=O)N[C@H](C(=O)NCC(=O)N[C@@H](CO)C(=O)N[C@@H](CC(N)=O)C(=O)N[C@H](C(=O)N1CCC[C@H]1C(N)=O)[C@@H](C)O)C(C)C)[C@@H](C)O` [PD193] ({C20 diacid}-D[AEEA][AEEA]KCNTATCATQRLADFLRHSSNNLKPILPPTNVGSNTP-NH2; disulfide 5-10 (inferred)), the EC50 on human amylin receptor came out at 74 pM.
